Results as given in US10703764B2, “Benzopiperazine compositions as BET bromodomain inhibitors” (FORMA Therapeutics, Inc., priority 2013, dated 2020).
Like-named read-outs stand apart in the source and are kept apart here.

Tests used:
BRD4 BD1 = molecular target: T1, BRD4 BD1 (Homo sapiens, UniProt O60885); test: AlphaScreen binding assay, BRD4 Bromodomain 1
T1 construct: made in house
Outline: (§1)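 An AlphaScreen competition format was used with His-BRD4 BD1 or BD2 and biotin-H4 K5/8/12/16-acetyl peptide, each at matched final levels of 50 nM (BD1) or 100 nM (BD2). Incubation in HEPES/NaCl buffer with 0.1% BSA and 0.01% Triton X-100 ran ≥1 h before IC50 determination.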

BRD4 BD2 = molecular target: T2, BRD4 BD2 (Homo sapiens, UniProt O60885); test: AlphaScreen binding assay, BRD4 Bromodomain 2
T2 construct: made in house
Outline: as §1

MV4-11 cells = test: Oncology cell growth assay (3-day proliferation, CellTiter-Glo); type: cell-based; details: Homo sapiens, AML cell line MV4-11, 72 hours, compounds grouped by IC50 range, read-out: MV4-11 IC50 (inhibition of proliferation, gIC50)
Outline: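 Luminescence from CellTiter-Glo served as the growth read-out after MV4-11 cells (3000/well) were cultured with compound for 72 hours. Final concentrations spanned 10 to 0.0045 μM in 3-fold steps. gIC50 values were derived by four-parameter logistic fitting relative to DMSO and cell-free controls.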

| IC50 (BRD4 BD1) | IC50 (BRD4 BD2) | IC50 (MV4-11 cells; MV4-11, 72 h) | SMILES | IC50 (MV4-11 cells) |
| --- | --- | --- | --- | --- |
| 1000 to 10000 nM | 50 to 500 nM | > 500 nM | CC(=O)N1c2ccc(-c3ccc(S(N)(=O)=O)c(F)c3)cc2N(C(=O)C2CC2)C[C@@H]1C [Example I-1297] |  |
| 1000 to 10000 nM | 50 to 500 nM | > 500 nM | CC(=O)N1c2ccc(-c3ccc(S(N)(=O)=O)c(F)c3)cc2N(C(=O)OC(C)C)C[C@@H]1C [Example I-1298] |  |
| 100 to 1000 nM | 50 to 500 nM | 100 to 500 nM | CC(=O)N1c2ccc(-c3ccc(S(=O)(=O)N(C)C)c(C)c3)cc2N(C(=O)OC(C)C)C[C@@H]1C [Example I-1299] |  |
| 100 to 1000 nM | 50 to 500 nM | > 500 nM | CC(=O)N1c2ccc(-c3ccc(S(=O)(=O)N(C)C)c(C)c3)cc2N(C(=O)C2CC2)C[C@@H]1C [Example I-1300] |  |
| < 100 nM | < 50 nM | < 100 nM | CC(=O)N1c2ccc(-c3cnn(C4CCOCC4)c3)cc2N(C(=O)OC2CCCCC2)C[C@@H]1C [Example I-1301] |  |
| 100 to 1000 nM | < 50 nM | 100 to 500 nM | CC(=O)N1c2ccc(-c3cnn(C4CCOCC4)c3)cc2N(C(=O)C2CC2)C[C@@H]1C [Example I-1302] |  |
| 100 to 1000 nM | 50 to 500 nM | < 100 nM | CC(=O)N1c2ccc(-c3cnn(C4CCNCC4)c3)cc2N(C(=O)OC2CCCCC2)C[C@@H]1C [Example I-1303] |  |
| < 100 nM | < 50 nM | < 100 nM | CC(=O)N1c2ccc(-c3cnn(C4CNC4)c3)cc2N(C(=O)OC2CCCCC2)C[C@@H]1C [Example I-1304] |  |
| 1000 to 10000 nM | < 50 nM | > 500 nM | CC(=O)N1c2ccc(-c3cnn(C4CS(=O)(=O)C4)c3)cc2N(C(=O)C2CC2)C[C@@H]1C [Example I-1305] |  |
| 100 to 1000 nM | 50 to 500 nM | > 500 nM | CC(=O)N1c2ccc(-c3cnn(C4CS(=O)(=O)C4)c3)cc2N(C(=O)OC(C)C)C[C@@H]1C [Example I-1306] |  |
| 100 to 1000 nM | < 50 nM | 100 to 500 nM | CC(=O)N1c2ccc(-c3cnn(C4CS(=O)(=O)C4)c3)cc2N(C(=O)OC2CCCC2)C[C@@H]1C [Example I-1307] |  |
| 100 to 1000 nM | < 50 nM | 100 to 500 nM | CC(=O)N1c2ccc(-c3cnn(C4CS(=O)(=O)C4)c3)cc2N(C(=O)OC2CCCCC2)C[C@@H]1C [Example I-1308] |  |
| 100 to 1000 nM | 50 to 500 nM | > 500 nM | CC(=O)N1c2ccc(-c3cnn(C4CCCS(=O)(=O)C4)c3)cc2N(C(=O)C2CC2)C[C@@H]1C (stereo partly drawn) [Example I-1310] |  |
| 100 to 1000 nM | 50 to 500 nM | 100 to 500 nM | CC(=O)N1c2ccc(-c3cnn(C4CCCS(=O)(=O)C4)c3)cc2N(C(=O)OC(C)C)C[C@@H]1C (stereo partly drawn) [Example I-1311] |  |
| 100 to 1000 nM | < 50 nM | 100 to 500 nM | CC(=O)N1c2ccc(-c3cnn(C4CCCS(=O)(=O)C4)c3)cc2N(C(=O)OC2CCCCC2)C[C@@H]1C (stereo partly drawn) [Example I-1312] |  |
| 100 to 1000 nM | 50 to 500 nM | 100 to 500 nM | CC(=O)N1c2ccc(-c3ccc(NS(C)(=O)=O)cc3)cc2N(C(=O)Oc2ccccn2)C[C@@H]1C [Example I-1316] |  |
| 100 to 1000 nM | < 50 nM | < 100 nM | CC(=O)N1c2ccc(-c3cnn(C4CC4)c3)cc2N(C(=O)Oc2ccccn2)C[C@@H]1C [Example I-1322] |  |
| 100 to 1000 nM | < 50 nM | 100 to 500 nM | COC(=O)N1c2ccc(-c3cnn(C4CC4)c3)cc2N(C(=O)Oc2ccccn2)C[C@@H]1C [Example I-1323] |  |
| 100 to 1000 nM | < 50 nM | 100 to 500 nM | CC(=O)N1c2ccc(-c3ccc(N4CCCS4(=O)=O)cc3)cc2N(C(=O)Oc2ccccn2)C[C@@H]1C [Example I-1324] |  |
| 100 to 1000 nM | 50 to 500 nM | 100 to 500 nM | CC(=O)N1c2ccc(-c3cnn(CCC#N)c3)cc2N(C(=O)Oc2ccccn2)C[C@@H]1C [Example I-1326] |  |
| 100 to 1000 nM | 50 to 500 nM | 100 to 500 nM | CC(=O)N1c2ccc(-c3ccc4c(c3)CCN4S(C)(=O)=O)cc2N(C(=O)Oc2ccccn2)C[C@@H]1C [Example I-1328] |  |
| 100 to 1000 nM | 50 to 500 nM | 100 to 500 nM | CC(=O)N1c2ccc(-c3ccc(N(C)S(C)(=O)=O)cc3)cc2N(C(=O)Oc2ccccn2)C[C@@H]1C [Example I-1330] |  |
| 100 to 1000 nM | 50 to 500 nM | 100 to 500 nM | CC(=O)N1c2ccc(-c3cnn(CCO)c3)cc2N(C(=O)Oc2ccccn2)C[C@@H]1C [Example I-1334] |  |

| SMILES | IC50 (BRD4 BD1) | IC50 (BRD4 BD2) | IC50 (MV4-11 cells; MV4-11, 72 h) | IC50 (MV4-11 cells) |
| --- | --- | --- | --- | --- |
| CC(=O)N1c2ccc(-c3cnn(C4CNC4)c3)cc2N(C(=O)Oc2cccnc2)C[C@@H]1C [Example I-1294] | 100 to 1000 nM | 50 to 500 nM |  | > 500 nM |
| CC(=O)N1c2ccc(-c3cnn(C4CCNCC4)c3)cc2N(C(=O)Oc2ccccn2)C[C@@H]1C [Example I-1332] | 100 to 1000 nM | < 50 nM |  | < 100 nM |
